What all share (type): cell-based
One test addresses T1, Y1R (Homo sapiens, UniProt P25929).
T1 sequence (P25929 1-384): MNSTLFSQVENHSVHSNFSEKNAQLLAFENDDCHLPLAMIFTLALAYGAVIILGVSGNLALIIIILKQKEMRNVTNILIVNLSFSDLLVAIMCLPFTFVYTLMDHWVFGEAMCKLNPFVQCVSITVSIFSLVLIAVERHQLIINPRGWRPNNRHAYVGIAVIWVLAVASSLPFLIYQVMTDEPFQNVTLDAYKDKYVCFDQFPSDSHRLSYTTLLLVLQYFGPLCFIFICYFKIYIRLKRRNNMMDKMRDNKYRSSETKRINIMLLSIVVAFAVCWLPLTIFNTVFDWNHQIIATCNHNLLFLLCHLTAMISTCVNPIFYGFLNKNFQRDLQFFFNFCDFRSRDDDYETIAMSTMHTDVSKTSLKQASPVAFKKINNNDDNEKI
The experiment in a line: CaFlux Assay (FLIPR), Y1R.

The target of a further test is Y4R (Homo sapiens, UniProt P50391). Kind of test: CaFlux Assay (FLIPR), Y4R.
The target of the next test is T2, Y5R (Homo sapiens, UniProt Q15761).
T2 sequence (Q15761 1-445): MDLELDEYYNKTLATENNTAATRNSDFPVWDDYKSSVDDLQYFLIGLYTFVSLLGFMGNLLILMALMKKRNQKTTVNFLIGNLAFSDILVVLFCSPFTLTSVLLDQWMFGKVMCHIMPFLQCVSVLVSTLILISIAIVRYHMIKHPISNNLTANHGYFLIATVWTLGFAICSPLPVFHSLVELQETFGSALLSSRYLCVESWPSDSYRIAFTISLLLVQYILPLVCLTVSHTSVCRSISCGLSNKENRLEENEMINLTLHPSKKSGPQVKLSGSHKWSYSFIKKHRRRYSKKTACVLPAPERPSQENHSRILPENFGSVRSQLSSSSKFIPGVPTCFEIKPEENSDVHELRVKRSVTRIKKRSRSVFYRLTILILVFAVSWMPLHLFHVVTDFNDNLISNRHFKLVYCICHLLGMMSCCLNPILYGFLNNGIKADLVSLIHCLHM
The experiment in a line: CaFlux Assay (FLIPR), Y5R.

In test [1] the target is T3, hNPY2R (Homo sapiens, UniProt P49146).
T3 sequence (P49146 1-381): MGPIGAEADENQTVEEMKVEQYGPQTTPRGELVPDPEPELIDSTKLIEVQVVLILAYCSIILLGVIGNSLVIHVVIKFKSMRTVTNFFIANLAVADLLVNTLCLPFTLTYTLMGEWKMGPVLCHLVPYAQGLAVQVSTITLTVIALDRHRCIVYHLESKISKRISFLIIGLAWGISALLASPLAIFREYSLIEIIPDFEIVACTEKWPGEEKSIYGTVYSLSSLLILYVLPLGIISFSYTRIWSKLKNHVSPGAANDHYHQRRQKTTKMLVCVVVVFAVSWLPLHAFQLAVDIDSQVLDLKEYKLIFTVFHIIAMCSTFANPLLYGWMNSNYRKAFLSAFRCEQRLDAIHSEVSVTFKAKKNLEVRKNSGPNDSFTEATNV
The experiment in a line: cAMP Agonist Assay, HEK293/hNPY2R. More on the design: expressed in transfected cells; host or cells: HEK293/hNPY2R (G418 selection). In short, it runs like this:
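HEK293/hNPY2R cells (10,000/well, overnight) stimulated 30 min at room temperature with compound plus 5 μM forskolin and 0.5 mM IBMX (1.1% DMSO final). Lysate cAMP measured by competitive chemiluminescent ELISA (AP conjugate, CSPD substrate); quadruplicates.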

The target in test [2] is T3, hNPY2R. The experiment in a line: CaFlux Assay (FLIPR), Y2R. More on the design: expressed in transfected cells; host or cells: HEK-293 stably transfected with G protein chimera Gαqi9. Put shortly: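 HEK-293 cells stably co-expressing chimeric Gαqi9 and the receptor were plated overnight at 37 °C, loaded 1 h at 37 °C with Calcium-3 dye in HBSS/20 mM HEPES/5 mM probenecid, then given compound on FLIPR. Peak fluorescence rise over 100 s, baseline-subtracted, expressed as % of positive-control maximum.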

Y4R, sequence (P50391 whole entry): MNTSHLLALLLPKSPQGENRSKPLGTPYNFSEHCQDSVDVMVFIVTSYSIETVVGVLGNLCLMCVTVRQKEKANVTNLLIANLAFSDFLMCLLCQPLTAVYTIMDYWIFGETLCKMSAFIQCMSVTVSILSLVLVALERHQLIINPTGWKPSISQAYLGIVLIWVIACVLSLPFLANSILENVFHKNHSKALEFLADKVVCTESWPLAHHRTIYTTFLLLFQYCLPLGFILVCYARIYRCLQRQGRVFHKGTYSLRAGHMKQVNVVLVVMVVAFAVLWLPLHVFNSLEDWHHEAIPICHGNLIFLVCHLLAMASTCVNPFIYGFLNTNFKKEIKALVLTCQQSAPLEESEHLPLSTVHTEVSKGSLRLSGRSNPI

As for `CCCCCCCCCCCCCCCC(=O)NCCCCCC(=O)N[C@H](C(=O)N[C@@H](CCCCNC(=O)CCOCCOCCOCCOCCOCCOCCOCCOCCOCCOCCOCCOCCOCCOCCOCCOC)C(=O)N1CCN(c2ccc3ncn(CC(=O)N[C@@H](CCCNC(N)=O)C(=O)N[C@@H](Cc4c[nH]cn4)C(=O)N[C@@H](Cc4ccc(O)cc4)C(=O)N[C@@H](CC(C)C)C(=O)N[C@@H](CC(N)=O)C(=O)N[C@@H](Cc4c[nH]c5ccccc45)C(=O)N[C@H](C(=O)N[C@H](C(=O)N[C@@H](CCCNC(=N)N)C(=O)N[C@@H](CCC(N)=O)C(=O)N(C)[C@@H](CCCNC(=N)N)C(=O)N[C@@H](Cc4ccc(O)cc4)C(N)=O)[C@@H](C)O)C(C)C)c(=O)c3c2)CC1)[C@@H](C)CC` [Example 32], the EC50 was over 6000 nM at Y1R; over 6000 nM on Y4R; 4760 nM at Y5R; 0.23 nM on hNPY2R [1]; 0.15 nM at hNPY2R [2].
With `CCCCCCCCCCCCCCCCCCCC(=O)NCCCCCC(=O)N[C@H](C(=O)N[C@@H](CCCCNC(=O)CCOCCOCCOCCOCCOCCOCCOCCOCCOCCOCCOCCOCCOCCOCCOCCOCCOCCOCCOCCOCCOCCOCCOCCOC)C(=O)N1CCN(c2ccc3ncn(CC(=O)N[C@@H](CCCNC(N)=O)C(=O)N[C@@H](Cc4c[nH]cn4)C(=O)N[C@@H](Cc4ccc(O)cc4)C(=O)N[C@@H](CC(C)C)C(=O)N[C@@H](CC(N)=O)C(=O)N[C@@H](Cc4c[nH]c5ccccc45)C(=O)N[C@H](C(=O)N[C@H](C(=O)N[C@@H](CCCNC(=N)N)C(=O)N[C@@H](CCC(N)=O)C(=O)N(C)[C@@H](CCCNC(=N)N)C(=O)N[C@@H](Cc4ccc(O)cc4)C(N)=O)[C@@H](C)O)C(C)C)c(=O)c3c2)CC1)[C@@H](C)CC` [Example 33], the EC50 was over 6000 nM on Y1R; over 6000 nM at Y4R; 4290 nM at Y5R; 0.13 nM on hNPY2R [1]; 0.127 nM on hNPY2R [2].
Regarding `CCCCCCCCCCCCCCCC(=O)NCCCCCC(=O)N[C@H](C(=O)N[C@@H](CCCCNC(=O)CCOCCOCCOCCOCCOCCOCCOCCOCCOCCOCCOCCOCCOCCOCCOCCOCCOCCOCCOCCOCCOCCOCCOCCOC)C(=O)N1CCN(c2ccc3ncn(CC(=O)N[C@@H](CCCNC(=N)N)C(=O)N[C@@H](Cc4c[nH]cn4)C(=O)N[C@@H](Cc4ccc(O)cc4)C(=O)N[C@@H](CC(C)C)C(=O)N[C@@H](CC(N)=O)C(=O)N[C@@H](Cc4c[nH]c5ccccc45)C(=O)N[C@H](C(=O)N[C@H](C(=O)N[C@@H](CCCNC(=N)N)C(=O)N[C@@H](CCC(N)=O)C(=O)N(C)[C@@H](CCCNC(=N)N)C(=O)N[C@@H](Cc4ccc(O)cc4)C(N)=O)[C@@H](C)O)C(C)C)c(=O)c3c2)CC1)[C@@H](C)CC` [Example 34], the EC50 at Y1R was over 5000 nM; at Y4R, over 5000 nM; on Y5R it was 988 nM; on hNPY2R [1], 0.18 nM; at hNPY2R [2], 0.068 nM.
Regarding `CCCCCCCCCCCC(=O)NCCCCCC(=O)N[C@H](C(=O)N[C@@H](CCCCNC(=O)CCOCCOCCOCCOCCOCCOCCOCCOCCOCCOCCOCCOCCOCCOCCOCCOCCOCCOCCOCCOCCOCCOCCOCCOC)C(=O)N1CCN(c2ccc3ncn(CC(=O)N[C@@H](CCCNC(N)=O)C(=O)N[C@@H](Cc4c[nH]cn4)C(=O)N[C@@H](Cc4ccc(O)cc4)C(=O)N[C@@H](CC(C)C)C(=O)N[C@@H](CC(N)=O)C(=O)N[C@@H](Cc4c[nH]c5ccccc45)C(=O)N[C@H](C(=O)N[C@H](C(=O)N[C@@H](CCCNC(=N)N)C(=O)N[C@@H](CCC(N)=O)C(=O)N(C)[C@@H](CCCNC(=N)N)C(=O)N[C@@H](Cc4ccc(O)cc4)C(N)=O)[C@@H](C)O)C(C)C)c(=O)c3c2)CC1)[C@@H](C)CC` [Example 36], the EC50 on Y1R was over 6000 nM; on Y4R, over 6000 nM; on Y5R, over 6000 nM; at hNPY2R [1], 12.7 nM; on hNPY2R [2], 0.388 nM.
For the compound `CCCCCCCCCCCCCC(=O)NCCCCCC(=O)N[C@H](C(=O)N[C@@H](CCCCNC(=O)CCOCCOCCOCCOCCOCCOCCOCCOCCOCCOCCOCCOCCOCCOCCOCCOCCOCCOCCOCCOCCOCCOCCOCCOC)C(=O)N1CCN(c2ccc3ncn(CC(=O)N[C@@H](CCCNC(N)=O)C(=O)N[C@@H](Cc4c[nH]cn4)C(=O)N[C@@H](Cc4ccc(O)cc4)C(=O)N[C@@H](CC(C)C)C(=O)N[C@@H](CC(N)=O)C(=O)N[C@@H](Cc4c[nH]c5ccccc45)C(=O)N[C@H](C(=O)N[C@H](C(=O)N[C@@H](CCCNC(=N)N)C(=O)N[C@@H](CCC(N)=O)C(=O)N(C)[C@@H](CCCNC(=N)N)C(=O)N[C@@H](Cc4ccc(O)cc4)C(N)=O)[C@@H](C)O)C(C)C)c(=O)c3c2)CC1)[C@@H](C)CC` [Example 37], the EC50 at Y1R is over 6000 nM; on Y4R, over 6000 nM; at Y5R, 4260 nM; on hNPY2R [1], 2.8 nM; at hNPY2R [2] it was 0.158 nM.
For `CCCCCCCCCCCCCCCC(=O)NCCCCCC(=O)NCCOCCOCCOCCOCCOCCOCCOCCOCCOCCOCCOCCOCCOCCOCCOCCOCCOCCOCCOCCOCCOCCOCCOCCOCCC(=O)N[C@H](C(=O)N[C@@H](CCCCN)C(=O)N1CCN(c2ccc3ncn(CC(=O)N[C@@H](CCCNC(=N)N)C(=O)N[C@@H](Cc4c[nH]cn4)C(=O)N[C@@H](Cc4ccc(O)cc4)C(=O)N[C@@H](CC(C)C)C(=O)N[C@@H](CC(N)=O)C(=O)N[C@@H](Cc4c[nH]c5ccccc45)C(=O)N[C@H](C(=O)N[C@H](C(=O)N[C@@H](CCCNC(=N)N)C(=O)N[C@@H](CCC(N)=O)C(=O)N(C)[C@@H](CCCNC(=N)N)C(=O)N[C@@H](Cc4ccc(O)cc4)C(N)=O)[C@@H](C)O)C(C)C)c(=O)c3c2)CC1)[C@@H](C)CC` [Example 38], the EC50 on Y1R is over 6000 nM; on Y4R, over 6000 nM; at Y5R it was 1380 nM; at hNPY2R [1] it was 0.07 nM; at hNPY2R [2] it was 0.1 nM.
Take `CCCCCCCCCCCCCCCC(=O)NCCCCCC(=O)NCCOCCOCCOCCOCCOCCOCCOCCOCCOCCOCCOCCOCCOCCOCCOCCOCCOCCOCCOCCOCCOCCOCCOCCOCCC(=O)NCCCC[C@H](NC(=O)[C@@H](NC(C)=O)[C@@H](C)CC)C(=O)N1CCN(c2ccc3ncn(CC(=O)N[C@@H](CCCNC(=N)N)C(=O)N[C@@H](Cc4c[nH]cn4)C(=O)N[C@@H](Cc4ccc(O)cc4)C(=O)N[C@@H](CC(C)C)C(=O)N[C@@H](CC(N)=O)C(=O)N[C@@H](Cc4c[nH]c5ccccc45)C(=O)N[C@H](C(=O)N[C@H](C(=O)N[C@@H](CCCNC(=N)N)C(=O)N[C@@H](CCC(N)=O)C(=O)N(C)[C@@H](CCCNC(=N)N)C(=O)N[C@@H](Cc4ccc(O)cc4)C(N)=O)[C@@H](C)O)C(C)C)c(=O)c3c2)CC1` [Example 39]: the EC50 on Y1R was over 6000 nM; on Y4R, over 6000 nM; at Y5R, 1950 nM; on hNPY2R [1] it was 0.07 nM; on hNPY2R [2] it was 0.038 nM.
On to `CCCCCCCCCCCCCCCC(=O)NCCCCCC(=O)NCCCCCC(=O)N[C@H](C(=O)N[C@@H](CCCCNC(=O)CCOCCOCCOCCOCCOCCOCCOCCOCCOCCOCCOCCOC)C(=O)N1CCN(c2ccc3ncn(CC(=O)N[C@@H](CCCNC(=N)N)C(=O)N[C@@H](Cc4c[nH]cn4)C(=O)N[C@@H](Cc4ccc(O)cc4)C(=O)N[C@@H](CC(C)C)C(=O)N[C@@H](CC(N)=O)C(=O)N[C@@H](Cc4c[nH]c5ccccc45)C(=O)N[C@H](C(=O)N[C@H](C(=O)N[C@@H](CCCNC(=N)N)C(=O)N[C@@H](CCC(N)=O)C(=O)N(C)[C@@H](CCCNC(=N)N)C(=O)N[C@@H](Cc4ccc(O)cc4)C(N)=O)[C@@H](C)O)C(C)C)c(=O)c3c2)CC1)[C@@H](C)CC` [Example 40], for which the EC50 on Y1R was over 6000 nM; on Y4R it was over 6000 nM; at Y5R, 820 nM; on hNPY2R [1], 0.11 nM; on hNPY2R [2], 0.058 nM.

By EC50 is commonly meant the concentration at which the effect is half-maximal. A lower EC50 goes with greater potency.

These data come from patent publication US20110172147A1, “NEUROPEPTIDE-2 RECEPTOR (Y-2R) AGONISTS” (priority 2009, published 2011).
